In US9138434B2, “Octahydrothienoquinoline derivative, pharmaceutical composition comprising derivative, and use of these” (KISSEI PHARMACEUTICAL CO., LTD., priority 2011, dated 2015):
Read-outs that look alike come from different tables or passages of the source.

Experiments:
[1] = target: T1, human dopamine D2 receptor (Homo sapiens, UniProt P14416); test: Stimulating activities on human dopamine D2 receptor, [35S]GTPγS binding to hD2R#7 cell membrane homogenates; type: biochemical
T1 construct: accorded to it of human dopamine D2 receptor (NM1-000795) registered on NCBI completely; expressed in transfected cells; membrane homogenates
T1 sequence (P14416 whole entry): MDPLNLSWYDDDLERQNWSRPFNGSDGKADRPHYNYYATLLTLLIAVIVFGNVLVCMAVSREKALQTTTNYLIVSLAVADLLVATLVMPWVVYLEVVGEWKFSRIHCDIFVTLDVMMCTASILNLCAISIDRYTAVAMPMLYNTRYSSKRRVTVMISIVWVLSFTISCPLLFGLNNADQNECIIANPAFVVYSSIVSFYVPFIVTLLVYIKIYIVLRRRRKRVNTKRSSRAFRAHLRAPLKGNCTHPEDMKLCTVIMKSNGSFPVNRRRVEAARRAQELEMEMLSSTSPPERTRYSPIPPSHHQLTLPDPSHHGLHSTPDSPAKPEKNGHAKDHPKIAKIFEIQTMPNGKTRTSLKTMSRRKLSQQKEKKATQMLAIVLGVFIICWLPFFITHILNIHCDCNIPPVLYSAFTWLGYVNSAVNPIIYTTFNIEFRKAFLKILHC
Protocol: Identification Test of Stimulating Activities on Human Dopamine D2 Receptor
4) Preparation of Membrane Homogenates from hD2R#7 Cells
(2) Preparation of Membrane Homogenates from hD2R#7 Cells
The cells, which were grown to confluence in 150 mm dishes (IWAKI), were harvested with isotonic buffer (50 mM Tris (Sigma), 2 mM ethylenediamine-tetraacetic acid (Invitrogen), and 125 mM sodium chloride (Wako Pure Chemicals), pH 7.4) and centrifuged at 1880×g and 4° C. for 10 minutes, and the cell pellets were then suspended in isotonic buffer. After being subjected to one cycle of freezing and thawing, the cells were centrifuged at 1880×g and 4° C. for 10 minutes, and the cell pellets were suspended in isotonic buffer. The cells were centrifuged at 1880×g and 4° C. for 10 minutes, and the cell pellets were suspended in isotonic buffer and homogenate buffer (10 mM sodium bicarbonate (Nacalai) and 5 mM ethylenediamine-tetraacetic acid, pH 7.5). The volume ratio of isotonic-to-homogenate buffer was 2. The cells were sonicated and centrifuged at 1880×g and 4° C. for 10 minutes, and the supernatants were ultracentrifuged at 80000×g and 4° C. for 30 minutes. The final cell pellets were suspended in homogenate buffer containing protease inhibitor cocktail (Nacalai) and stored at −80° C. until use. The protein concentration was determined using BCA Protein Assay Kit (Pierce) in accordance with the manufacturer's instructions.
5) Determination of Stimulating Activities of Human Dopamine D2 Receptor
The stimulating activities of human dopamine D2 receptor was determined by measuring the binding potential of [^35S]-guanosine 5′-[gamma-thio]triphosphate ([^35S]GTPγS, PerkinElmer) according to the method described by Newman-Tancredi A. et al. (Naunyn-Schmiedeberg's Arch Pharmacol, 1999, vol. 359, pp. 447-453) with a minor modification. Test compounds and dopamine hydrochloride (Fluka) as positive control were dissolved in dimethyl sulfoxide (CARLBIOCHEM), resulting in 30 mM. The both compounds were diluted with assay buffer (50 mM Tris, 100 mM sodium chloride, 5 mM magnesium chloride (Nacalai), 1 mM ethylenediamine-tetraacetic acid, 1 mM dithiothreitol (Wako Pure Chemicals), 10 μM guanosine diphosphate (Wako Pure Chemicals) and 0.5% bovine serum albumin (Sigma), pH 7.4) to a final concentration of 100 pM (only test compounds), 1 nM, 10 nM, 100 nM, 1 μM, 10 μM and 100 μM (only dopamine hydrochloride). The above membrane homogenates and [^35S]GTPγS were diluted with assay buffer to a final concentration of 0.06 mg/mL and 0.6 nM, respectively. The serial diluted compounds (50 μL), the diluted membrane homogenates (50 μL) and the diluted [^35S]GTPγS (50 μL) were mixed on multi-screen 96-well plate (Millipore) and shaken lightly at room temperature for 60 minutes. The reaction was terminated by vacuum filtration with three times washes of ice-cold wash buffer (50 mM Tris, 100 mM sodium chloride, 5 mM magnesium chloride, and 1 mM ethylenediamine-tetraacetic acid, pH 7.4). After drying the bottoms of the plate at 60° C., MicroScinti-40 (PerkinElmer) (30 μL) was added in the plate. The tops of the plate were sealed by TopSeal-A (PerkinElmer), and the radioactivity was determined in a TopCount NXT (registered mark) (PerkinElmer) after shaking lightly for 5-10 minutes. The data was analyzed by nonlinear regression and sigmoidal dose-response curve fitting using GraphPad PRISM 4.0 (GraphPad Software), and values of EC50 (concentration of the compound producing half the maximal effect of the compound) were calculated. The data was presented as mean value (n=2).

[2] = target: T2, human serotonin 5-HT2B receptor (Homo sapiens, UniProt P41595); test: Stimulating activities on human serotonin 5-HT2B receptor, intracellular calcium in forced expression HEK293 cells; type: cell-based; conditions: intracellular calcium (Fluo-4), HEK293 cells transiently expressing human 5-HT2B receptor; mean, n=2; read-out: EC50
T2 construct: expressed in transfected cells; host or cells: HEK293, transient transfection (Lipofectamine 2000)
T2 sequence (P41595 whole entry): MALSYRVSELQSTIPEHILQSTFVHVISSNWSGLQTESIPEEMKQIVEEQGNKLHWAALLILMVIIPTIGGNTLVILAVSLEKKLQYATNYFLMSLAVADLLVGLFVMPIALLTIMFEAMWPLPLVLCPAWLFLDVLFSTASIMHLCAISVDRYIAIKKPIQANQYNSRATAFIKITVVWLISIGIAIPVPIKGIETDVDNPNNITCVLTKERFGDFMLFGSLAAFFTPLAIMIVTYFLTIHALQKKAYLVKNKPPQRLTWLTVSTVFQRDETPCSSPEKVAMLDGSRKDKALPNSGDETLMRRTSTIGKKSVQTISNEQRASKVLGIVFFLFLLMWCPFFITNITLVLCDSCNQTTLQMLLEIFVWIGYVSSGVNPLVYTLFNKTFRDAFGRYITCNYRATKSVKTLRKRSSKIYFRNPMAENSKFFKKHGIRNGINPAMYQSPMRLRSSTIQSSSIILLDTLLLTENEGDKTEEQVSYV
Protocol: Identification Test of Stimulating Activities on Human Serotonin 5-HT2B Receptor
The PCR was performed using forward primer depicted as sequence ID No. 4, reverse primer depicted as sequence ID No. 5 and KOD-Plus-Ver.2 (TOYOBO) as template of human brain hippocampus cDNA (Clontech). The PCR product was inserted into a plasmid (pcDNA3.1/V5-His-Topo (registered mark)). The PCR product-inserted plasmid was transformed in E. coli (One Shot TOP10 Chemically Competent). That E. coli was incubated in LB agar medium contained 50 μg/mL ampicillin for a day. A selected colony was incubated in LB medium contained 50 μg/mL ampicillin and PCR product-inserted plasmid was purified with QIAprep Spin Miniprep Kit (QIAGEN).
Mostly confluent HEK293 cells were washed with PBS, followed by exfoliation with 0.05% trypsin-EDTA and the cells were suspended in D-MEM liquid medium (phenol red-free, low glucose, pyruvic acid were contained) containing fetal bovine serum (final concentration: 10%) and GlutaMax (registered mark)I (final concentration: 2 mM). The suspension was scattered at 5×10^4 cells/100 L/well on poly-D-lysine-coated 96-well microplate (BD BioCoat (registered mark)). The scattered cells were cultured in 5% CO2 incubator at 37° C. Human serotonin 5-HT2B receptor expression plasmid was transfected in that cells according to the procedure seeing below.
Human serotonin 5-HT2B receptor expression plasmid and Lipofectamine (registered mark) 2000 (Invitrogen) were diluted to 0.008 g/L and 0.016 g/L each other with OPTI-MEM (registered mark)I Reduced-Serum Medium and incubated at room temperature. After incubation, the human serotonin 5-HT2B receptor exoression plasmid-diluted liquid and Lipofectamine (registered mark) 2000-diluted liquid were mixed at an equal volume and incubated at room temperature to form a complex. The complex was dispensed at 50 μL/well on the cells prepared above. The cells were incubated in 5% CO2 incubator at 37° C. for 2 days. After incubation, the cells were used as human serotonin 5-HT2B receptor forced expression cells for measurement of intracellular calcium concentration.
3) Determination of Stimulating Activities of Human Serotonin 5-HT2B Receptor
The stimulating activities of human serotonin 5-HT2B receptor was determined by measuring of intracellular calcium concentration. The 30 mM dimethyl sulfoxide (DMSO) solution contained test compounds or serotonin hydrochloride (Sigma) as positive control, was diluted with assay buffer ((HBSS), 20 mM HEPES, 1.3 mM calcium chloride, 0.5 mM magnesium chloride and 0.4 mM magnesium sulfate were contained, pH7.4) to appropriate concentration.
The forced expression cells were washed with assay buffer, and 100 μL/well of fluorescent calcium indicator (Fluo-4 NW Calcium Assay Kit) was added and incubated in 5% CO2 incubator at 37° C. After incubation, 50 μL/well of each test compound was added, and the concentration of intracellular calcium was measured as fluorescent signal with FlexStation (registered mark) II (Molecular Devices). The data was analyzed by nonlinear regression and sigmoidal dose-response curve fitting using GraphPad PRISM 4.0, and values of EC50 (concentration of the compound producing half the maximal effect of the compound) were calculated. The data was presented as mean value (n=2).

[3] = [35S]GTPγS binding, membrane homogenates of HEK293 cells stably expressing human D2 receptor, mean, n=2, read-out: EC50

Row | EC50 [1, 3] | EC50 [2] | SMILES | EC50 [1]
1 | 4 nM | > 10000 nM | CN(C)CCNC(=O)N(CCc1ccccc1)C(=O)[C@@H]1C[C@@H]2Cc3c(sc(N)c3C#N)C[C@H]2N(C)C1 (relative stereo) [1-30, 1-{[(4aR*,6R*,8aR*)-2-amino-3-cyano-8-methyl-4H,4aH,5H,6H,7H,8H,8aH,9H-thieno[3,2-g]quinolin-6-yl]carbonyl}-3-[2-(dimethylamino)ethyl]-1-(2-phenylethyl)urea] | –
2 | 9 nM | – | CN(C)CCNC(=O)N(CC(C)(C)C)C(=O)[C@@H]1C[C@@H]2Cc3c(sc(N)c3C#N)C[C@H]2N(C)C1 (relative stereo) [1-56, 1-{[(4aR*,6R*,8aR*)-2-amino-3-cyano-8-methyl-4H,4aH,5H,6H,7H,8H,8aH,9H-thieno[3,2-g]quinolin-6-yl]carbonyl}-3-[2-(dimethylamino)ethyl]-1-(2,2-di-methylpropyl)urea] | –
3 | 13 nM | > 10000 nM | CCCN(C(=O)NCC(C)(C)N(C)C)C(=O)[C@@H]1C[C@@H]2Cc3c(sc(N)c3C#N)C[C@H]2N(C)C1 (relative stereo) [1-82, 1-{[(4aR*,6R*,8aR*)-2-amino-3-cyano-8-methyl-4H,4aH,5H,6H,7H,8H,8aH,9H-thieno[3,2-g]quinolin-6-yl]carbonyl}-3-[2-(dimethylamino)-2-methylpropyl]-1-propylurea] | –
4 | – | > 10000 nM | CCN(C(=O)NCC(CC)(CC)N(C)C)C(=O)[C@@H]1C[C@@H]2Cc3c(sc(N)c3C#N)C[C@H]2N(C)C1 (relative stereo) [1-84, 1-{[(4aR*,6R*,8aR*)-2-amino-3-cyano-8-methyl-4H,4aH,5H,6H,7H,8H,8aH,9H-thieno[3,2-g]quinolin-6-yl]carbonyl}-3-[2-(dimethylamino)-2-ethylbutyl]-1-ethylurea] | –
5 | 10 nM | – | CN(C)CCNC(=O)N(CC1CC1)C(=O)[C@@H]1C[C@@H]2Cc3c(sc(N)c3C#N)C[C@H]2N(C)C1 (single isomer, unassigned) [1-36] | –
6 | 11 nM | > 10000 nM | CCNC(=O)N(CCN1CCCC1)C(=O)[C@@H]1C[C@@H]2Cc3c(sc(N)c3C#N)C[C@H]2N(C)C1 [1-6, 1-{[(4aR,6R,8aR)-2-amino-3-cyano-8-methyl-4H,4aH,5H,6H,7H,8H,8aH,9H-thieno[3,2-g]quinolin-6-yl]carbonyl}-3-ethyl-1-[2-(pyrrolidin-1-yl)ethyl]urea] | –
7 | 7 nM | – | CCCN1C[C@H](C(=O)N(CCCN(C)C)C(=O)NCC)C[C@@H]2Cc3c(sc(N)c3C#N)C[C@H]21 [1-13] | –
8 | 21 nM | – | CCN(C(=O)NCCCOC)C(=O)[C@@H]1C[C@@H]2Cc3c(sc(N)c3C#N)C[C@H]2N(C)C1 [1-21] | –
9 | – | – | CCN(C(=O)NCc1ccccn1)C(=O)[C@@H]1C[C@@H]2Cc3c(sc(N)c3C#N)C[C@H]2N(C)C1 [1-25] | 15 nM
10 | 6 nM | – | CN(C)CCNC(=O)N(Cc1cccs1)C(=O)[C@@H]1C[C@@H]2Cc3c(sc(N)c3C#N)C[C@H]2N(C)C1 [1-37] | –
11 | 17 nM | – | C=CCN(C(=O)NCCN(C)C)C(=O)[C@@H]1C[C@@H]2Cc3c(sc(N)c3C#N)C[C@H]2N(C)C1 [1-39] | –
12 | 13 nM | – | CCN(C(=O)NCCc1ccccc1CCN(C)C)C(=O)[C@@H]1C[C@@H]2Cc3c(sc(N)c3C#N)C[C@H]2N(C)C1 [1-44] | –
13 | 11 nM | – | CN(C)CCNC(=O)N(CCCC(F)(F)F)C(=O)[C@@H]1C[C@@H]2Cc3c(sc(N)c3C#N)C[C@H]2N(C)C1 [1-61] | –
14 | 14 nM | – | CCCCN(C(=O)NCCN1CCN(C)CC1)C(=O)[C@@H]1C[C@@H]2Cc3c(sc(N)c3C#N)C[C@H]2N(C)C1 [1-66] | –
15 | 12 nM | – | COCCN(C(=O)NCCN1CCCCC1)C(=O)[C@@H]1C[C@@H]2Cc3c(sc(N)c3C#N)C[C@H]2N(C)C1 [1-68] | –
16 | 6 nM | > 10000 nM | CCCN(C(=O)NCC(C)(C)CN(C)C)C(=O)[C@@H]1C[C@@H]2Cc3c(sc(N)c3C#N)C[C@H]2N(C)C1 [1-83] | –
17 | 13 nM | – | CCN(C(=O)NCCN(C)c1ccccc1)C(=O)[C@@H]1C[C@@H]2Cc3c(sc(N)c3C#N)C[C@H]2N(C)C1 [1-86] | –
18 | 22 nM | – | CCCCN(C(=O)NCCN(C)CCO)C(=O)[C@@H]1C[C@@H]2Cc3c(sc(N)c3C#N)C[C@H]2N(C)C1 [1-87] | –
19 | 24 nM | – | CCCCN(C(=O)NCCN(CC)CC)C(=O)[C@H]1CN[C@@H]2Cc3sc(N)c(C#N)c3C[C@H]2C1 [1-88] | –
20 | 8 nM | > 10000 nM | CCCN(C(=O)NC1CN(C)C1)C(=O)[C@@H]1C[C@@H]2Cc3c(sc(N)c3C#N)C[C@H]2N(C)C1 [1-99] | –
21 | 4 nM | > 10000 nM | CN(C)CC(C)(C)CNC(=O)N(CC1CC1)C(=O)[C@@H]1C[C@@H]2Cc3c(sc(N)c3C#N)C[C@H]2N(C)C1 [1-104, 1-{[(4aR,6R,8aR)-2-amino-3-cyano-8-methyl-4H,4aH,5H,6H,7H,8H,8aH,9H-thieno[3,2-g]quinolin-6-yl]carbonyl}-1-(cyclopropylmethyl)-3-[3-(dimethylamino)-2,2-dimethyl-propyl]urea] | –
22 | – | 287 nM | CCCN1C[C@H](CSC)C[C@@H]2c3cccc4[nH]cc(c34)C[C@H]21 [Pergolide, pergolide, reference compound] | –

Row | SMILES | EC50 [1, 3] | EC50 [2] | EC50 [1]
23 | CCCN(C(=O)NCCNC)C(=O)[C@@H]1C[C@@H]2Cc3c(sc(N)c3C#N)C[C@H]2N(C)C1 [1-2] | 12 nM | > 10000 nM | –
24 | CCN(C(=O)NC)C(=O)[C@@H]1C[C@@H]2Cc3c(sc(N)c3C#N)C[C@H]2N(C)C1 [1-23] | 8 nM | > 10000 nM | –
